Converted amounts (≈) assume the structure as drawn.
Columns and labels:
Fungal ACC2 = Fungal ACC2 (UniProt Q00955); settings: read-out: Fungal ACC2 (IC50, in vitro ACC2 inhibition)
[1] = test system: Fusarium virguliforme (Fv); assay: Growth inhibition assay of fungal pathogens, Fv; assay type: cell-based; settings: 48 hours, read-out: Concentration at 90% Inhibition, Fv
Protocol: (§1) Compounds of the present invention were evaluated in a growth inhibition assay to determine the ability to control the growth of fungal pathogens, such as Botrtyis cinerea (Bc). Collectotrichum graminicola (Cg), Diplodia maydis (Dm), Fusarium moniliforme (Fm), Fusarium virguliforme (Fv), Phytophthora capsici (Pc), Rhizoctonia solani (Rs), and Septoria tritici (St). Compounds to be tested were dissolved in DMSO at 2.5 mg/ml to produce compound stock solutions (“stocks”). Stocks were diluted with DMSO by a five-fold dilution in a 96-well stock plate, and two sets of final concentrations of 50, 10, and 2 ppm or 2, 0.4, and 0.08 ppm were obtained in vitro. A set of positive controls was also prepared, with various concentrations of Soraphen (2, 0.4, and 0.08 ppm), Metalaxyl (1.1, 0.22, and 0.04 ppm), and Metconazole (2, 0.4, and 0.08 ppm or 0.2, 0.04, and 0.008 ppm) after the five-fold dilutions. Negative controls on each plate included 2% DMSO, water, and a blank (media+2% DMSO). Fungal spores were isolated from previously sub-cultured plates of Botrtyis cinerea (Bc), Collectotrichum graminicola (Cg), Diplodia maydis (Dm), Fusarium moniliforme (Fm), Fusarium virguliforme (Fv), Phytophthora capsici (Pc), and Septoria tritici (St). The isolated spores were diluted to individual concentrations with a 17% V8 liquid media. For Rhizoctonia solani (Rs) and Pythium irregulare, 1.5 mm mycelial plugs were used in place of spores and ¼ Potato Dextrose Broth (PDB) was used for dilution. The spore concentrations and plug sizes were based on growth curves generated at 48 hours for each pathogen. In a second 96-well plate, the spores or mycelial plugs, media, diluted compound solutions, and controls were combined. Once the compound was added, a true final concentration of compound in each well was measured by an OD600 reading, which adjusted for any compound precipitation that might have occurred in the well. Plate readings were repeated at both 24 and 48 hours. The blank negative control was used as a background subtraction. Additional visual ratings were performed at both 24 and 48 hours for checking on precipitation and confirming efficacy. Visual and OD600 ratings of the compounds at 48 hours were compared to the 2% DMSO negative control, and the percent of pathogen growth inhibition was determined based on those values.

[2] = test system: Fusarium moniliforme (Fm); assay: Growth inhibition assay of fungal pathogens, Fm; assay type: cell-based; settings: Fusarium verticillioides; 48 hours; read-out: Concentration at 90% Inhibition, Fm
Protocol: as §1

Human ACC2 = Human ACC2 (Homo sapiens, UniProt O00763); assay: In vitro ACC2 inhibition assay (ADP-Glo), human ACC2; assay type: biochemical; settings: 5 nM ACC2, 20 μM ATP, 20 μM acetyl-CoA
Sequence of Human ACC2 (O00763 whole entry): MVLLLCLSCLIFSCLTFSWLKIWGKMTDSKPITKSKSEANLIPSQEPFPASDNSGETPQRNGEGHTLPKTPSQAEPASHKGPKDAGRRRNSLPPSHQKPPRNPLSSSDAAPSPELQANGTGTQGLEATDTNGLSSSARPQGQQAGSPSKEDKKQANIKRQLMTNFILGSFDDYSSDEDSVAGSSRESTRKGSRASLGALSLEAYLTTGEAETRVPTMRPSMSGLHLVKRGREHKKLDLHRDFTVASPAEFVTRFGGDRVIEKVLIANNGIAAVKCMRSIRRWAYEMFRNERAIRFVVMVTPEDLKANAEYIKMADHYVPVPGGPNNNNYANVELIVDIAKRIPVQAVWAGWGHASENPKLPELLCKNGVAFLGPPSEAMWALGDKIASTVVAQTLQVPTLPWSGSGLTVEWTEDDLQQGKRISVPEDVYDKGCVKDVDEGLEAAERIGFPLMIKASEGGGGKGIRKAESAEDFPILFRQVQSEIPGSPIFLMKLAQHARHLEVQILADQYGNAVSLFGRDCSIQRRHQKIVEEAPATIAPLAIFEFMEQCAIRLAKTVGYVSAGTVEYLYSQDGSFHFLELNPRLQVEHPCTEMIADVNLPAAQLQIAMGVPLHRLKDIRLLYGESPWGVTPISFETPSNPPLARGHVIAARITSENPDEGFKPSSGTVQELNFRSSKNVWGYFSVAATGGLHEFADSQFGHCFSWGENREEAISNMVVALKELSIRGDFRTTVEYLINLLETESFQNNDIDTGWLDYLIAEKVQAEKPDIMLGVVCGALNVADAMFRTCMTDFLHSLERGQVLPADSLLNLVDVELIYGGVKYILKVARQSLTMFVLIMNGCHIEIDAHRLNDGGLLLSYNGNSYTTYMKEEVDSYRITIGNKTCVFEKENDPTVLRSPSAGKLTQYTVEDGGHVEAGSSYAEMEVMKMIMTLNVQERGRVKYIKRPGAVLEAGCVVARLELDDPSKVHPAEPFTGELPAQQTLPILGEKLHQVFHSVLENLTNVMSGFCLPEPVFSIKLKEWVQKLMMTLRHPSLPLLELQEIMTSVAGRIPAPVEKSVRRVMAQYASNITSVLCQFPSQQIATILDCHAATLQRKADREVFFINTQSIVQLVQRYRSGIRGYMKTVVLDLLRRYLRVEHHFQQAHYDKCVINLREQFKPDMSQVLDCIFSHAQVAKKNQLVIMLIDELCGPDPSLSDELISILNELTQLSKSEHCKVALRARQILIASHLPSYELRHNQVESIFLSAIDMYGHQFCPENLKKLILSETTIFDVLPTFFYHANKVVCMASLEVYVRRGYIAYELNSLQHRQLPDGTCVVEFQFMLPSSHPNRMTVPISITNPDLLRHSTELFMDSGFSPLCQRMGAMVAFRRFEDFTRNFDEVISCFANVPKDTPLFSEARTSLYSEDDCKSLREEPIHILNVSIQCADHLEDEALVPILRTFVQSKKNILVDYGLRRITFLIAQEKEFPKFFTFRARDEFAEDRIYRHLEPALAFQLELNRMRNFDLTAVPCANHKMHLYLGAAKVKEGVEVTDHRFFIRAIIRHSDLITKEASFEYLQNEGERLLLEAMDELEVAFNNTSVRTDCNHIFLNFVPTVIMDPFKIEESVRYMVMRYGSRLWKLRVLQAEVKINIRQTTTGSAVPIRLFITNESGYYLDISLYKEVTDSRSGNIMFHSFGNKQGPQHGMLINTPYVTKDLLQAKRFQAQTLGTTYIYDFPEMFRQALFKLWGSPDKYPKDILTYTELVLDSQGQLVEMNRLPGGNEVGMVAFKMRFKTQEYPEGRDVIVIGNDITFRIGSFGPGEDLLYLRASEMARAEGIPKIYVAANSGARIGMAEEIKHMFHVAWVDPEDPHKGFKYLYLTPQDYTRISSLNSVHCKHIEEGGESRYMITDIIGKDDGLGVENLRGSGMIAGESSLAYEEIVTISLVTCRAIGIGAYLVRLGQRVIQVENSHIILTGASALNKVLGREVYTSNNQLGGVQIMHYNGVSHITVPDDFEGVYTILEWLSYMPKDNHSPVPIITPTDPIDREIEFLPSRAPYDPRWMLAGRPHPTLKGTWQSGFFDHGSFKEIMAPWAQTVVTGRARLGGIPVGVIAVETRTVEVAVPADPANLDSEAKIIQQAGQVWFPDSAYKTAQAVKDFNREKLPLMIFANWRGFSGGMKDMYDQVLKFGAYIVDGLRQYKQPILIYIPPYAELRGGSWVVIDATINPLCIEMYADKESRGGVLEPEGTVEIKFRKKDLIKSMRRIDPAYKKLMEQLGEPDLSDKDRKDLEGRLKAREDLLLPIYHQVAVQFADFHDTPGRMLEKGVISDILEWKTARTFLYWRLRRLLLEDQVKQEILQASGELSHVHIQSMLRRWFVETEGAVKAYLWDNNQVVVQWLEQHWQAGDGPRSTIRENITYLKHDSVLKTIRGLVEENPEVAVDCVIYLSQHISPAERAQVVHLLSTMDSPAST

[3] = test system: C. parapsilosis ATCC 22019; assay: Anti-Fungal Activity Assay (broth microtiter MIC), C. parapsilosis; assay type: cell-based, Candida parapsilosis; settings: Lodderomyces parapsilosis, ATCC22019, 48 h, 3 replicates; MIC recorded at 48 h; read-out: MIC C. parapsilosis ATCC 22019
Summary of the method: (§2)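 MIC taken as visual growth inhibition versus the growth control, mostly at 48 h (soraphen also at 24 h). Following CLSI M27-A3, colonies grown overnight at 35° C on Sabouraud dextrose agar were suspended in RPMI 1640+MOPS; test agents came from 1 mg/mL DMSO stocks.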

[4] = test system: Phytophthora capsici (Pc); assay: Growth inhibition assay of fungal pathogens, Pc; assay type: cell-based; settings: 48 hours, read-out: Concentration at 90% Inhibition, Pc
Protocol: as §1

Rhizoctonia solani (Rs) = assay: Growth inhibition assay of fungal pathogens, Rs; assay type: cell-based; settings: 48 hours, read-out: Concentration at 90% Inhibition, Rs
Protocol: as §1

Botrtyis cinerea (Bc) = assay: Growth inhibition assay of fungal pathogens, Bc; assay type: cell-based; settings: 48 hours; read-out: Concentration at 90% Inhibition, Bc
Protocol: as §1

[5] = compound concentration 10 ppm, foliar spray, evaluated 7 days after inoculation
Diplodia maydis (Dm) = assay: Growth inhibition assay of fungal pathogens, Dm; assay type: cell-based; settings: Stenocarpella maydis; 48 hours; read-out: Concentration at 90% Inhibition, Dm
Protocol: as §1

[6] = test system: Collectotrichum graminicola (Cg); assay: Growth inhibition assay of fungal pathogens, Cg; assay type: cell-based; settings: 48 hours; read-out: Concentration at 90% Inhibition, Cg
Protocol: as §1

C. krusei ATCC 6258 = assay: Anti-Fungal Activity Assay (broth microtiter MIC), C. krusei; assay type: cell-based, Candida krusei; settings: Pichia kudriavzevii, ATCC6258, 48 h, 3 replicates; MIC recorded at 48 h; read-out: MIC C. krusei ATCC 6258
Summary of the method: as §2

Septoria tritici (St) = assay: Growth inhibition assay of fungal pathogens, St; assay type: cell-based; settings: Zymoseptoria tritici; 48 hours; read-out: Concentration at 90% Inhibition, St
Protocol: as §1

C. albicans ATCC 90028 = assay: Anti-Fungal Activity Assay (broth microtiter MIC), C. albicans; assay type: cell-based, Candida albicans; settings: Candida albicans, ATCC90028, 48 h, 3 replicates; MIC recorded at 48 h; read-out: MIC C. albicans ATCC 90028
Summary of the method: as §2

[7] = test system: Blumeria graminis f sp. hordei; assay: Foliar protection test, barley powdery mildew control; assay type: in vivo, Blumeria graminis f sp. hordei on Hordeum vulgare cv. Perry; settings: 168 h, compound concentration 50 ppm, foliar spray, evaluated 7 days after inoculation, read-out: Barley Powdery Mildew Control at 50 ppm
Protocol: Compounds of the present invention were evaluated in a foliar protection test to determine the ability to control barley powdery mildew. Plants (Hordeum vulgare cv. Perry) were grown for 6 days in 2-inch square pots containing Metromix 200 medium amended with fertilizer. For propagation, plants were maintained in a growth chamber at conditions of 20 to 21° C., 16 hour light cycle, 400 uM of light, 70% humidity, and with sub-irrigation as needed. After inoculation with the pathogen of Blumeria graminis f sp. hordei, plants were kept at conditions of 20 to 22° C., 70% relative humidity, and 200 uM of light to facilitate infection and disease development. At 6 days after planting (1st true leaf fully expanded), the test compounds were dissolved in a solution of 5% acetone and 0.005% Tween 80 surfactant. An atomizer was used for applying the solution onto both sides of the leaves until thoroughly wetted. The amount of the compound applied to the leaves was typically 200, 100, 50, 10, or 2 ppm, but it may vary. At 24 hours after treatment, the plants were moved to a cooler chamber and inoculated by shaking well-colonized, untreated stock plants above the treated plants. This allowed producing a settling cloud of spores and resulting in uniform infection. Efficacy was evaluated in 7 days later by examining leaves for colonization and growth of mildew. Table 5 lists the results of barley powdery mildew control at a compound concentration of 50 ppm or 10 ppm. Compounds having an activity designated as “AA” provided a compound having >85% control of barley powdery mildew; compounds having an activity designated as “A” provided a compound having from 70% to 84% control of barley powdery mildew; compounds having an activity designated as “B” provided a compound having from 50 to 69% control of barley powdery mildew; compounds having an activity designated as “C” provided a compound having from 25 to 49% control of barley powdery mildew; and compounds having an activity designated as “D” provided a compound having <25% control of barley powdery mildew.

Sequence of Fungal ACC2 (Q00955 whole entry): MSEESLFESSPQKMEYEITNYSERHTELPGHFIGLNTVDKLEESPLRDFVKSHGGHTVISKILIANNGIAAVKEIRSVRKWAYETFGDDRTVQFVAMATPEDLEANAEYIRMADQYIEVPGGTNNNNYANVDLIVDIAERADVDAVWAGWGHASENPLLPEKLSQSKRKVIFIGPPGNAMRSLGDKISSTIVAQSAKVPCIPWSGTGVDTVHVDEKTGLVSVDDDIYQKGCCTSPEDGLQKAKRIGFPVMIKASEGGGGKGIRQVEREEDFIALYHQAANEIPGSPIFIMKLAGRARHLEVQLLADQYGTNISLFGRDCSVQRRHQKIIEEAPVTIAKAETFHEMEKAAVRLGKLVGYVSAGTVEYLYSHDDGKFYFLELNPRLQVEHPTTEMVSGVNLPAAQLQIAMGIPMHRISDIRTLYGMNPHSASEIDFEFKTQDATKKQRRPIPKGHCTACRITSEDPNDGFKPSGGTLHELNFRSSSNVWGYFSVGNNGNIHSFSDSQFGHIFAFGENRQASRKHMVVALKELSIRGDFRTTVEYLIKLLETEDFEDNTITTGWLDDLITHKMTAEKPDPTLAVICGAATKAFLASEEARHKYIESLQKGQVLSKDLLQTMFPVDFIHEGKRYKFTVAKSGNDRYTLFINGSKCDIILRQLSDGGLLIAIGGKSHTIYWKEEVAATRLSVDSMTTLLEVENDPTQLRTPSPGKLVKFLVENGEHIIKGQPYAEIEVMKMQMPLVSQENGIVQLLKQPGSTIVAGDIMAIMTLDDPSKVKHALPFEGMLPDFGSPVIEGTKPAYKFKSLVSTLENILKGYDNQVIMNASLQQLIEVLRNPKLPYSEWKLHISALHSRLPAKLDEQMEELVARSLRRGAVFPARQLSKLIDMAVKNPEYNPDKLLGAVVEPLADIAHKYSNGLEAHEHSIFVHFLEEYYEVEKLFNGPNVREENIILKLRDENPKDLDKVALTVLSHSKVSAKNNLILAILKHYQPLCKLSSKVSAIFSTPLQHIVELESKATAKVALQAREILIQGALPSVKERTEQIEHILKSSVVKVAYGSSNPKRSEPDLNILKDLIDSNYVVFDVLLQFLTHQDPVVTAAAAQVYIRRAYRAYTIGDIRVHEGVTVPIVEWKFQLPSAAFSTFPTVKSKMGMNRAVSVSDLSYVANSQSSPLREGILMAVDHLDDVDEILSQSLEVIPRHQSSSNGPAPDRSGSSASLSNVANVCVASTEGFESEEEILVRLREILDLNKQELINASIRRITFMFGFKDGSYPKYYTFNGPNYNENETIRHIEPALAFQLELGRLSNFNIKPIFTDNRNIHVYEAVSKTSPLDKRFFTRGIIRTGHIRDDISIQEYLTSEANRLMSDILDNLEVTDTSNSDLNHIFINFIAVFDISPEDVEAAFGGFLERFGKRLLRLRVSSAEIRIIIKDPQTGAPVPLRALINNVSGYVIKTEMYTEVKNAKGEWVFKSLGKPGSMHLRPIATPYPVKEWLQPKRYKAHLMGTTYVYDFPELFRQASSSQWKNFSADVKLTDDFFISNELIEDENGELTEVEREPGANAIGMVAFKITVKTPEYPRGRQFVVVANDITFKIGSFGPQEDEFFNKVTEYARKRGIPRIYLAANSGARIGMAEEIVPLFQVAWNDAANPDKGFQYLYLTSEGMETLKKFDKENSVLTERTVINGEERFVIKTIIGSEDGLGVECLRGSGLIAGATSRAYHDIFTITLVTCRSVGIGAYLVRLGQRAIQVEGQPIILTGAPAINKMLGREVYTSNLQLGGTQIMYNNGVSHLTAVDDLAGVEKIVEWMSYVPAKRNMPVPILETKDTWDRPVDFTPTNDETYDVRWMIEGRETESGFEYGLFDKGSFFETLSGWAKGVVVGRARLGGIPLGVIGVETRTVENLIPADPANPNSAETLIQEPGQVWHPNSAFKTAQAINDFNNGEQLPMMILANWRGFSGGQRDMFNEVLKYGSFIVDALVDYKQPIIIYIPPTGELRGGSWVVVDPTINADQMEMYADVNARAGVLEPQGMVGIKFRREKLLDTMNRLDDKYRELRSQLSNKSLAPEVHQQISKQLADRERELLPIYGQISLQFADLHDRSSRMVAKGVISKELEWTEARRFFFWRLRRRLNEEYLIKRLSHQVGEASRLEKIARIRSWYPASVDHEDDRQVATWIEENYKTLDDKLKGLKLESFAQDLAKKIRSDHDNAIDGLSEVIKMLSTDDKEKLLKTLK

## COc1ccc(F)cc1[C@@H](O)Cn1c(=O)n([C@H]2CCN(C)C2=O)c(=O)c2c(C)c(-n3nccn3)sc21 [Compound I-164, 1-((R)-2-(5-fluoro-2-methoxyphenyl)-2-hydroxyethyl)-5-methyl-3-((S)-1-methyl-2-oxopyrrolidin-3-yl)-6-(2H-1,2,3-triazol-2-yl)thieno[2,3-d]pyrimidine-2,4(1H,3H)-dione]
Fungal ACC2
  IC50: 0.7 to 2 nM
[1]
  IC90: 2 µg/mL (≈ 3.89 µM)
[2]
  IC90: 0.4 µg/mL (≈ 0.777 µM)
Human ACC2
  IC50: 10 to 100 nM
[3]
  MIC: 2.1 to 4 µg/mL (≈ 4.08 to 7.77 µM)
[4]
  IC90: > 50 µg/mL
Rhizoctonia solani (Rs)
  IC90: 0.4 µg/mL (≈ 0.777 µM)
Botrtyis cinerea (Bc)
  IC90: 2 µg/mL (≈ 3.89 µM)
[5]
  Barley Powdery Mildew Control at 10 ppm: B (provided a compound having from 50 to 69% control of barley powdery mildew)
Diplodia maydis (Dm)
  IC90: > 50 µg/mL
[6]
  IC90: 10 µg/mL (≈ 19.4 µM)
C. krusei ATCC 6258
  MIC: 1.1 to 2 µg/mL (≈ 2.14 to 3.89 µM)
Septoria tritici (St)
  IC90: > 50 µg/mL
C. albicans ATCC 90028
  MIC: 2.1 to 4 µg/mL (≈ 4.08 to 7.77 µM)

## COCCO[C@@H](Cn1c(=O)n([C@@H]2CCCN(C(C)C)C2=O)c(=O)c2c(C)c(-n3nccn3)sc21)c1cc(F)ccc1OC [Compound I-79, 1-((R)-2-(5-fluoro-2-methoxyphenyl)-2-(2-methoxy-ethoxy)ethyl)-3-((R)-1-isopropyl-2-oxopiperidin-3-yl)-5-methyl-6-(2H-1,2,3-triazol-2-yl)thieno[2,3-d]pyrimidine-2,4(1H,3H)-dione]
Fungal ACC2
  IC50: 2 to 10 nM
[1]
  IC90: > 50 µg/mL
[2]
  IC90: 10 µg/mL (≈ 16.3 µM)
Human ACC2
  IC50: 100 to 1000 nM
[3]
  MIC: 0.25 to 1 µg/mL (≈ 0.407 to 1.63 µM)
[4]
  IC90: > 50 µg/mL
Rhizoctonia solani (Rs)
  IC90: > 50 µg/mL
[7]
  pest or weed control at 50 ppm: 50 to 69%
Botrtyis cinerea (Bc)
  IC90: > 50 µg/mL
Diplodia maydis (Dm)
  IC90: 10 µg/mL (≈ 16.3 µM)
[6]
  IC90: > 50 µg/mL
C. krusei ATCC 6258
  MIC: 1.1 to 2 µg/mL (≈ 1.79 to 3.25 µM)
Septoria tritici (St)
  IC90: > 50 µg/mL
C. albicans ATCC 90028
  MIC: 1.1 to 2 µg/mL (≈ 1.79 to 3.25 µM)

## COc1ccc(F)cc1[C@@H](O)Cn1c(=O)n([C@@H]2CCN(C)C2=O)c(=O)c2c(C)c(-n3nccn3)sc21 [Compound I-166, 1-((R)-2-(5-fluoro-2-methoxyphenyl)-2-hydroxyethyl)-5-methyl-3-((R)-1-methyl-2-oxopyrrolidin-3-yl)-6-(2H-1,2,3-triazol-2-yl)thieno[2,3-d]pyrimidine-2,4(1H,3H)-dione]
Fungal ACC2
  IC50: 0.7 to 2 nM
[1]
  IC90: 10 µg/mL (≈ 19.4 µM)
[2]
  IC90: 2 µg/mL (≈ 3.89 µM)
Human ACC2
  IC50: 2 to 10 nM
[4]
  IC90: > 50 µg/mL
Rhizoctonia solani (Rs)
  IC90: 2 µg/mL (≈ 3.89 µM)
Botrtyis cinerea (Bc)
  IC90: 2 µg/mL (≈ 3.89 µM)
[5]
  Barley Powdery Mildew Control at 10 ppm: B (provided a compound having from 50 to 69% control of barley powdery mildew)
Diplodia maydis (Dm)
  IC90: 10 µg/mL (≈ 19.4 µM)
[6]
  IC90: 10 µg/mL (≈ 19.4 µM)
Septoria tritici (St)
  IC90: > 50 µg/mL

## COc1ccc(F)cc1[C@H](Cn1c(=O)n([C@@H]2CCN(C)C2=O)c(=O)c2c(C)c(-n3nccn3)sc21)OCCC#N [Compound I-109, 3-((R)-1-(5-fluoro-2-methoxyphenyl)-2-(5-methyl-3-((R)-1-methyl-2-oxopyrrolidin-3-yl)-2,4-dioxo-6-(2H-1,2,3-triazol-2-yl)-3,4-dihydro-thieno[2,3-d]pyrimidin-1(2H)-yl)ethoxy)propanenitrile]
Fungal ACC2
  IC50: 0.7 to 2 nM
[1]
  IC90: 2 µg/mL (≈ 3.52 µM)
[2]
  IC90: 0.4 µg/mL (≈ 0.705 µM)
Human ACC2
  IC50: 2 to 10 nM
[3]
  MIC: 2.1 to 4 µg/mL (≈ 3.7 to 7.05 µM)
[4]
  IC90: > 50 µg/mL
Rhizoctonia solani (Rs)
  IC90: 2 µg/mL (≈ 3.52 µM)
Botrtyis cinerea (Bc)
  IC90: 0.4 µg/mL (≈ 0.705 µM)
[5]
  Barley Powdery Mildew Control at 10 ppm: A (provided a compound having from 70% to 84% control of barley powdery mildew)
Diplodia maydis (Dm)
  IC90: 2 µg/mL (≈ 3.52 µM)
[6]
  IC90: 2 µg/mL (≈ 3.52 µM)
C. krusei ATCC 6258
  MIC: 2.1 to 4 µg/mL (≈ 3.7 to 7.05 µM)
Septoria tritici (St)
  IC90: > 50 µg/mL
C. albicans ATCC 90028
  MIC: 2.1 to 4 µg/mL (≈ 3.7 to 7.05 µM)

## COc1ccc(F)cc1[C@H](Cn1c(=O)n([C@H]2CCN(C)C2=O)c(=O)c2c(C)c(-n3nccn3)sc21)OCCC#N [Compound I-108, 3-((R)-1-(5-fluoro-2-methoxyphenyl)-2-(5-methyl-3-((S)-1-methyl-2-oxopyrrolidin-3-yl)-2,4-dioxo-6-(2H-1,2,3-triazol-2-yl)-3,4-dihydro-thieno[2,3-d]pyrimidin-1 (2H)-yl)ethoxy)propanenitrile]
Fungal ACC2
  IC50: 0.7 to 2 nM
[1]
  IC90: 2 µg/mL (≈ 3.52 µM)
[2]
  IC90: 0.08 µg/mL (≈ 0.141 µM)
Human ACC2
  IC50: 2 to 10 nM
[3]
  MIC: 2.1 to 4 µg/mL (≈ 3.7 to 7.05 µM)
[4]
  IC90: > 50 µg/mL
Rhizoctonia solani (Rs)
  IC90: 2 µg/mL (≈ 3.52 µM)
Botrtyis cinerea (Bc)
  IC90: 0.4 µg/mL (≈ 0.705 µM)
[5]
  Barley Powdery Mildew Control at 10 ppm: AA (provided a compound having >85% control of barley powdery mildew)
Diplodia maydis (Dm)
  IC90: 10 µg/mL (≈ 17.6 µM)
[6]
  IC90: 10 µg/mL (≈ 17.6 µM)
C. krusei ATCC 6258
  MIC: 2.1 to 4 µg/mL (≈ 3.7 to 7.05 µM)
Septoria tritici (St)
  IC90: > 50 µg/mL
C. albicans ATCC 90028
  MIC: 2.1 to 4 µg/mL (≈ 3.7 to 7.05 µM)
